Drawing on paper PMC12135072 (RSC Medicinal Chemistry, 2025), this text covers IC50 for 22 compounds.

The subject of assay [1] is MCF7 (ATCC – HTB-22, breast carcinoma). Briefly: MTT cell viability assay, MCF7. It counts as cell-based. As to conditions: Homo sapiens, MCF7, read-out: IC50 MCF7. In general terms: Tetrazolium assays rely on reduction of a dye to a coloured formazan, in cell work by metabolically active cells.
Assay [2] relates to HCT116 (ATCC – CCL-247, colon carcinoma). The assay can be described thus: MTT cell viability assay, HCT116. It counts as cell-based. As to conditions: Homo sapiens, HCT-116, read-out: IC50 HCT116.
In assay [3] the test system is MRC5 (ATCC – CCL-171, human diploid fibroblast cell line). The assay can be described thus: cells. Particulars: MRC5, read-out: IC50 MRC5.
Assay [4] has as its system A549 (ATCC – CCL-185, lung carcinoma). Briefly: MTT cell viability assay, A549. It counts as cell-based. Particulars: Homo sapiens, A549, read-out: IC50 A549.

Where only a bound is given, the exact number is not on record here.

Consider `Cc1ccn(-c2ccc(C3C(C#N)=C(N)OC4=C3C(=O)CCC4)cc2)n1` (stereo not shown) [Compound 7a, 2-amino-4-(4-(3-methyl-1H-pyrazol-1-yl)phenyl)-5-oxo-5,6,7,8-tetrahydro-4H-chromene-3-carbonitrile], for which the IC50 in assay [1] was 190 ± 5.34 µM; in assay [2] it was 139 ± 3.89 µM; in assay [3] it was above 200 µM; in assay [4], 89.7 ± 4.38 µM.

Take `Cc1cnn(-c2ccc(C3C(C#N)=C(N)OC4=C3C(=O)CCC4)cc2)c1` (stereo not shown) [Compound 7b, 2-Amino-4-(4-(4-methyl-1H-pyrazol-1-yl)phenyl)-5-oxo-5,6,7,8-tetrahydro-4H-chromene-3-carbonitrile]: the IC50 in assay [1] is 24 ± 2.27 µM; in assay [2], 163 ± 3.14 µM; in assay [3], above 200 µM; in assay [4], 147 ± 3.61 µM.

For the compound `Cc1cc(C)n(-c2ccc(C3C(C#N)=C(N)OC4=C3C(=O)CCC4)cc2)n1` (stereo not shown) [Compound 7c, 2-Amino-4-(4-(3,5-dimethyl-1H-pyrazol-1-yl)phenyl)-5-oxo-5,6,7,8-tetrahydro-4H-chromene-3-carbonitrile], the half-maximal inhibitory concentration (IC50) in assay [1] was 22.9 ± 1.31 µM; in assay [2], 194 ± 6.01 µM; in assay [3], above 200 µM; in assay [4] it was above 200 µM.

As for `N#CC1=C(N)OC2=C(C(=O)CCC2)C1c1ccc(-n2cc(Br)cn2)cc1` (stereo not shown) [Compound 7d, 2-Amino-4-(4-(4-bromo-1H-pyrazol-1-yl)phenyl)-5-oxo-5,6,7,8-tetrahydro-4H-chromene-3-carbonitrile], the concentration for half-maximal inhibition (IC50) is 56.1 ± 3.79 µM in assay [1], 45.7 ± 0.67 µM in assay [2], above 200 µM in assay [3] and 23.6 ± 1.29 µM in assay [4].

Take `N#CC1=C(N)OC2=C(C(=O)CCC2)C1c1ccc(-n2ccc(C(F)(F)F)n2)cc1` (stereo not shown) [Compound 7e, 2-Amino-5-oxo-4-(4-(3-(trifluoromethyl)-1H-pyrazol-1-yl)phenyl)-5,6,7,8-tetrahydro-4H-chromene-3-carbonitrile]: the concentration for half-maximal inhibition (IC50) in assay [1] is 15 ± 0.78 µM; in assay [2], 72.2 ± 0.96 µM; in assay [3], above 200 µM; in assay [4], 18 ± 0.45 µM.

For `Cc1cncn1-c1ccc(C2C(C#N)=C(N)OC3=C2C(=O)CC(C)(C)C3)cc1` (stereo not shown) [Compound 8c, 2-Amino-7,7-dimethyl-4-(4-(5-methyl-1H-imidazol-1-yl)phenyl)-5-oxo-5,6,7,8-tetrahydro-4H-chromene-3-carbonitrile], the IC50 in assay [1] is 83.2 ± 2.11 µM; in assay [2], 162 ± 6.91 µM; in assay [3] it was above 200 µM; in assay [4], 133 ± 5.81 µM.

`CCc1nccn1-c1ccc(C2C(C#N)=C(N)OC3=C2C(=O)CC(C)(C)C3)cc1` (stereo not shown) [Compound 8d, 2-Amino-4-(4-(2-ethyl-1H-imidazol-1-yl)phenyl)-7,7-dimethyl-5-oxo-5,6,7,8-tetrahydro-4H-chromene-3-carbonitrile]: the IC50 in assay [1] is above 200 µM; in assay [2] it was 137 ± 5.82 µM; in assay [3], above 200 µM; in assay [4], 19.8 ± 0.94 µM.

On to `CC1(C)CC(=O)C2=C(C1)OC(N)=C(C#N)C2c1ccc(-n2cnc(Br)c2)cc1` (stereo not shown) [Compound 8e, 2-Amino-4-(4-(4-bromo-1H-imidazol-1-yl)phenyl)-7,7-dimethyl-5-oxo-5,6,7,8-tetrahydro-4H-chromene-3-carbonitrile], for which the IC50 in assay [1] is 74.87 ± 0.17 µM; in assay [2], 77.6 ± 1.58 µM; in assay [3], above 200 µM; in assay [4], 30.6 ± 1.85 µM.

Consider `N#CC1=C(N)Oc2c(c(=O)oc3ccccc23)C1c1ccc(OCc2cn(-c3ccccc3)nn2)cc1` (stereo not shown) [Compound 15a, 2-Amino-5-oxo-4-(4-((1-phenyl-1H-1,2,3-triazol-4-yl)methoxy)phenyl)-4H,5H-pyrano[3,2-c]chromene-3-carbonitrile], for which the IC50 in assay [1] was above 200 µM; in assay [2], above 200 µM; in assay [3], 146.5 ± 0.53 µM; in assay [4], above 200 µM.

For `N#CC1=C(N)Oc2c(c(=O)oc3ccccc23)C1c1ccc(OCc2cn(-c3ccc(Cl)cc3)nn2)cc1` (stereo not shown) [Compound 15b, 2-Amino-4-(4-((1-(4-chlorophenyl)-1H-1,2,3-triazol-4-yl)methoxy)phenyl)-5-oxo-4H,5H-pyrano[3,2-c]chromene-3-carbonitrile], the IC50 in assay [1], in assay [2], in assay [3] and in assay [4] was above 200 µM in each case.

`N#CC1=C(N)Oc2c(c(=O)oc3ccccc23)C1c1ccc(OCc2cn(-c3ccc(Br)cc3)nn2)cc1` (stereo not shown) [Compound 15c, 2-Amino-4-(4-((1-(4-bromophenyl)-1H-1,2,3-triazol-4-yl)methoxy)phenyl)-5-oxo-4H,5H-pyrano[3,2-c]chromene-3-carbonitrile]: the half-inhibitory concentration (IC50) is above 200 µM in assay [1], above 200 µM in assay [2], 66.9 ± 1.6 µM in assay [3] and above 200 µM in assay [4].

For the compound `Cc1ccc(-n2cc(COc3ccc(C4C(C#N)=C(N)Oc5c4c(=O)oc4ccccc54)cc3)nn2)cc1` (stereo not shown) [Compound 15d, 2-Amino-5-oxo-4-(4-((1-(p-tolyl)-1H-1,2,3-triazol-4-yl)methoxy)phenyl)-4H,5H-pyrano[3,2-c]chromene-3-carbonitrile], the IC50 in assay [1], in assay [2], in assay [3] and in assay [4] was above 200 µM throughout.

With `COc1ccc(-n2cc(COc3ccc(C4C(C#N)=C(N)Oc5c4c(=O)oc4ccccc54)cc3)nn2)cc1` (stereo not shown) [Compound 15e, 2-Amino-4-(4-((1-(4-methoxyphenyl)-1H-1,2,3-triazol-4-yl)methoxy)phenyl)-5-oxo-4H,5H-pyrano[3,2-c]chromene-3-carbonitrile], the IC50 in assay [1], in assay [2], in assay [3] and in assay [4] was above 200 µM each time.

As for `N#CC1=C(N)Oc2c(c(=O)oc3ccccc23)C1c1ccc(-n2ccnn2)cc1` (stereo not shown) [Compound 15f, 4-(4-(1H-1,2,3-Triazol-1-yl)phenyl)-2-amino-5-oxo-4H,5H-pyrano[3,2-c]chromene-3-carbonitrile], the half-maximal inhibitory concentration (IC50) in assay [1] was found to be 145 ± 2.75 µM; in assay [2] it was 163 ± 5.45 µM; in assay [3], 156 ± 0.48 µM; in assay [4], 72.9 ± 2.26 µM.

For the compound `N#CC1=C(N)Oc2c(c(=O)oc3ccccc23)C1c1ccc(-n2cnnn2)cc1` (stereo not shown) [Compound 15g, 4-(4-(1H-Tetrazol-1-yl)phenyl)-2-amino-5-oxo-4H,5H-pyrano[3,2-c]chromene-3-carbonitrile], the IC50 in assay [1], in assay [2], in assay [3] and in assay [4] was above 200 µM throughout.

For the compound `Cc1cc2c(c(=O)o1)C(c1ccc(OCc3cn(-c4ccccc4)nn3)cc1)C(C#N)=C(N)O2` (stereo not shown) [Compound 17a, 2-Amino-7-methyl-5-oxo-4-(4-((1-phenyl-1H-1,2,3-triazol-4-yl)methoxy)phenyl)-4H,5H-pyrano[4,3-b]pyran-3-carbonitrile], the IC50 in assay [1] is above 200 µM; in assay [2] it was above 200 µM; in assay [3], above 200 µM; in assay [4] it was 80.5 ± 4.68 µM.

As for `Cc1cc2c(c(=O)o1)C(c1ccc(OCc3cn(-c4ccc(Cl)cc4)nn3)cc1)C(C#N)=C(N)O2` (stereo not shown) [Compound 17b, 2-Amino-4-(4-((1-(4-chlorophenyl)-1H-1,2,3-triazol-4-yl)methoxy)phenyl)-7-methyl-5-oxo-4H,5H-pyrano[4,3-b]pyran-3-carbonitrile], the concentration for half-maximal inhibition (IC50) in assay [1] was 36.06 ± 0.31 µM; in assay [2] it was 47.4 ± 4.13 µM; in assay [3], above 200 µM; in assay [4] it was 20.4 ± 1.87 µM.

For `Cc1cc2c(c(=O)o1)C(c1ccc(OCc3cn(-c4ccc(Br)cc4)nn3)cc1)C(C#N)=C(N)O2` (stereo not shown) [Compound 17c, 2-Amino-4-(4-((1-(4-bromophenyl)-1H-1,2,3-triazol-4-yl)methoxy)phenyl)-7-methyl-5-oxo-4H,5H-pyrano[4,3-b]pyran-3-carbonitrile], the IC50 in assay [1], in assay [2], in assay [3] and in assay [4] was above 200 µM each time.

Regarding `Cc1ccc(-n2cc(COc3ccc(C4C(C#N)=C(N)Oc5cc(C)oc(=O)c54)cc3)nn2)cc1` (stereo not shown) [Compound 17d, 2-Amino-7-methyl-5-oxo-4-(4-((1-(p-tolyl)-1H-1,2,3-triazol-4-yl)methoxy)phenyl)-4H,5H-pyrano[4,3-b]pyran-3-carbonitrile], the IC50 in assay [1], in assay [2], in assay [3] and in assay [4] was above 200 µM in each case.

Turning to `COc1ccc(-n2cc(COc3ccc(C4C(C#N)=C(N)Oc5cc(C)oc(=O)c54)cc3)nn2)cc1` (stereo not shown) [Compound 17e, 2-Amino-4-(4-((1-(4-methoxyphenyl)-1H-1,2,3-triazol-4-yl)methoxy)phenyl)-7-methyl-5-oxo-4H,5H-pyrano[4,3-b]pyran-3-carbonitrile], the IC50 in assay [1] was 52.2 ± 1.34 µM; in assay [2] it was above 200 µM; in assay [3], above 200 µM; in assay [4], above 200 µM.

For `Cc1cc2c(c(=O)o1)C(c1ccc(-n3ccnn3)cc1)C(C#N)=C(N)O2` (stereo not shown) [Compound 17f, 4-(4-(1H-1,2,3-Triazol-1-yl)phenyl)-2-amino-7-methyl-5-oxo-4H,5H-pyrano[4,3-b]pyran-3-carbonitrile], the IC50 in assay [1] is 30.3 ± 1.73 µM; in assay [2], above 200 µM; in assay [3], above 200 µM; in assay [4] it was above 200 µM.

With `Cc1cc2c(c(=O)o1)C(c1ccc(-n3cnnn3)cc1)C(C#N)=C(N)O2` (stereo not shown) [Compound 17g, 4-(4-(1H-Tetrazol-1-yl)phenyl)-2-amino-7-methyl-5-oxo-4H,5H-pyrano[4,3-b]pyran-3-carbonitrile], the half-inhibitory concentration (IC50) is 39.2 ± 2.71 µM in assay [1], above 200 µM in assay [2], above 200 µM in assay [3] and 164 ± 3.26 µM in assay [4].

The IC50 is the concentration needed to halve the response being measured.
